The record followed here is ChEMBL document CHEMBL1201862, “PubChem BioAssay data set” (2004).

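The compound was tested at five concentrations on cells cultured in 96-well plates, with a 48-hour exposure period. At the GI50, growth is halved.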 Calls of active or inactive are those of the source. Cut-off read from the data, not from the text of the source: active = GI50 up to about 1.1 µM and inactive = higher.

Among the test systems are MCF7; MDA-MB-435; UACC-257; SNB-75; HL-60; SNB-19; OVCAR-8; HCT-15; NCI-H226; MOLT-4; SK-MEL-5; NCI-H460; SN12C; HCT-116; COLO 205; CAKI-1; RXF 393; EKVX; OVCAR-5; HOP-92.
What all share (assay): NCI anticancer screen, dose series, 48 h

On to `COc1cc([N+](=O)[O-])c(S(=O)(=O)O)cc1-n1nc(-c2ccccc2)n[n+]1-c1cc(S(=O)(=O)[O-])c([N+](=O)[O-])cc1OC`, for which the GI50 in the test with MCF7, in the test with MDA-MB-435, in the test on UACC-257, in the test on SNB-75, in the test on HL-60 and in the test on SNB-19 was > 100 µM (inactive) each time. Further, the GI50 in the test with OVCAR-8 is > 100 µM (inactive); with HCT-15, above 100 µM; with NCI-H226, > 100 µM (inactive); in the test on MOLT-4, > 100 µM (inactive); with SK-MEL-5, > 100 µM (inactive); in the test with NCI-H460 it was > 100 µM (inactive). Moreover, the GI50 with SN12C, with HCT-116, in the test with COLO 205, with CAKI-1, in the test with RXF 393 and with EKVX was > 100 µM (inactive) in each case. Moreover, the GI50 with OVCAR-5 is > 100 µM (inactive).
Turning to `COc1cc2c(c(OC)c1OC)-c1ccc(SC)cc1C(=O)CC2`, the GI50 in the test with MCF7 was < 0.01 µM (active); with MDA-MB-435, < 0.01 µM (active); with SNB-75 it was 1 µM (active); in the test on HL-60 it was < 0.01 µM (active); with SNB-19, < 0.01 µM (active); with OVCAR-8 it was < 0.01 µM (active). For the same compound, the GI50 with HCT-15 was below 0.01 µM; in the test on NCI-H226, < 0.01 µM (active); with MOLT-4, < 0.01 µM (active); with SK-MEL-5, < 0.01 µM (active); in the test with NCI-H460, < 0.01 µM (active); in the test on SN12C, < 0.0421 µM (active). Besides, the GI50 with HCT-116 was < 0.01 µM (active); with COLO 205, < 0.01 µM (active); in the test on CAKI-1, < 0.0227 µM (active); with RXF 393, 66.8 µM (inactive); with EKVX it was < 0.0382 µM (active); in the test with OVCAR-5 it was > 100 µM (inactive).
For `N[C@@H]1C[C@H](N)c2c(Cl)sc(Cl)c21`, the GI50 in the test with MCF7, in the test on MDA-MB-435, with UACC-257, with SNB-75, with SNB-19 and in the test on OVCAR-8 was > 100 µM (inactive) in each case. The GI50 in the test with HCT-15 was above 100 µM; in the test with NCI-H226, > 100 µM (inactive); in the test on MOLT-4, > 100 µM (inactive); with HOP-92, > 100 µM (inactive); with SK-MEL-5, > 100 µM (inactive); in the test with NCI-H460, > 100 µM (inactive). Besides, the GI50 in the test with SN12C, in the test with HCT-116, in the test with COLO 205, in the test on CAKI-1, with RXF 393 and with EKVX was > 100 µM (inactive) in each case. For the same compound, the GI50 in the test with OVCAR-5 is > 100 µM (inactive).
As to `CCOC(=O)/C(=C\c1ccnc2ccccc12)P(=O)(OCC)OCC`, the GI50 was 1.4 µM (inactive) in the test on MCF7; 2.75 µM (inactive) in the test with MDA-MB-435; 3.73 µM (inactive) in the test with UACC-257; 3.49 µM (inactive) in the test with SNB-75; 3.65 µM (inactive) with SNB-19; 1.81 µM (inactive) in the test on OVCAR-8. Also, the GI50 is 1.47 µM in the test with HCT-15; 10.5 µM (inactive) in the test with NCI-H226; 4.65 µM (inactive) in the test on MOLT-4; 2.49 µM (inactive) with HOP-92; 2.84 µM (inactive) in the test on SK-MEL-5; 3.48 µM (inactive) with NCI-H460. The GI50 was 3.01 µM (inactive) with SN12C; 1.99 µM (inactive) in the test on HCT-116; 2.17 µM (inactive) in the test with COLO 205; 2.25 µM (inactive) in the test on CAKI-1; 2.62 µM (inactive) with RXF 393; 4.65 µM (inactive) with EKVX. Moreover, the GI50 with OVCAR-5 is 2.25 µM (inactive).
Take `CC(=O)NCCC1CN(C(=O)/C=C\C#C[Si](C)(C)C)c2ccccc21` (stereo unspecified): the GI50 in the test on MCF7 is 5.36 µM (inactive); with MDA-MB-435, 21.2 µM (inactive); in the test with UACC-257, 2.55 µM (inactive); in the test on HL-60, 23.3 µM (inactive); in the test on SNB-19 it was 26.3 µM (inactive); with OVCAR-8 it was 37.9 µM (inactive). In addition, the GI50 was 17.2 µM in the test on HCT-15; 14.9 µM (inactive) in the test on NCI-H226; 17.3 µM (inactive) in the test with MOLT-4; 41.1 µM (inactive) in the test with HOP-92; 6.35 µM (inactive) in the test with SK-MEL-5; 28.8 µM (inactive) in the test with NCI-H460. Further, the GI50 in the test with SN12C is 37.3 µM (inactive); with HCT-116, > 10 µM (inactive); in the test with COLO 205, 4.88 µM (inactive); in the test on CAKI-1, 13.8 µM (inactive); in the test with RXF 393, 12.1 µM (inactive); with EKVX, 14.8 µM (inactive). Besides, the GI50 in the test with OVCAR-5 is 17.1 µM (inactive).
Take `CCc1cc2c(c3c1CCCC3)CC1(Cc3ccc(C(=O)OC)cc3C1)C2` (stereo unspecified): the GI50 with MCF7 was > 100 µM (inactive); in the test on MDA-MB-435 it was 52.6 µM (inactive); in the test on UACC-257, 53.1 µM (inactive); with SNB-75, > 100 µM (inactive); with HL-60, 20.8 µM (inactive); in the test on SNB-19, > 100 µM (inactive). In addition, the GI50 with OVCAR-8 is > 100 µM (inactive); with HCT-15, above 100 µM; in the test on NCI-H226, > 100 µM (inactive); with MOLT-4, 35.4 µM (inactive); in the test on HOP-92 it was 36.7 µM (inactive); with SK-MEL-5 it was 71.8 µM (inactive). In addition, the GI50 in the test with NCI-H460 was > 100 µM (inactive); with SN12C it was > 100 µM (inactive); in the test on HCT-116 it was 54.3 µM (inactive); with COLO 205, > 100 µM (inactive); with RXF 393, > 100 µM (inactive); in the test on EKVX, 64.4 µM (inactive). Besides, the GI50 with OVCAR-5 was > 100 µM (inactive).
Consider `COc1ccc(C2SCC(=O)N2NC(=O)c2ccc(NC(C)=O)cc2)c(OC)c1` (stereo unspecified), for which the GI50 in the test with MCF7, with MDA-MB-435, with UACC-257, in the test on SNB-75, with HL-60 and in the test on SNB-19 was > 100 µM (inactive) each time. In addition, the GI50 in the test with OVCAR-8 is > 100 µM (inactive); in the test on HCT-15, above 100 µM; in the test on NCI-H226, > 100 µM (inactive); with MOLT-4, > 100 µM (inactive); in the test on HOP-92 it was > 100 µM (inactive); with SK-MEL-5 it was > 100 µM (inactive). The GI50 in the test on NCI-H460, in the test on SN12C, in the test on HCT-116, in the test on COLO 205, in the test with RXF 393 and with EKVX was > 100 µM (inactive) each time. In addition, the GI50 in the test on OVCAR-5 is > 100 µM (inactive).
`CN(Cc1cccc2ccccc12)Cc1cccc2ccccc12`: the GI50 was 20.7 µM (inactive) in the test with MCF7; 35.7 µM (inactive) in the test on MDA-MB-435; 50.1 µM (inactive) with UACC-257; 46.1 µM (inactive) in the test on SNB-75; 13.4 µM (inactive) with HL-60; 52.7 µM (inactive) in the test on SNB-19. Further, the GI50 was 70.5 µM (inactive) in the test on OVCAR-8; 22.2 µM in the test on HCT-15; 30.9 µM (inactive) in the test with NCI-H226; 15.3 µM (inactive) in the test on MOLT-4; 18.5 µM (inactive) in the test with SK-MEL-5; 40.6 µM (inactive) in the test on NCI-H460. Also, the GI50 with SN12C was 36.6 µM (inactive); with HCT-116, 13.4 µM (inactive); with COLO 205 it was 17.8 µM (inactive); in the test with CAKI-1, 50.1 µM (inactive); with RXF 393, 47.1 µM (inactive); in the test with EKVX, 37.5 µM (inactive). In the test on OVCAR-5, the GI50 is 43 µM (inactive).
